Drawing on patent US20230295201A1 (Gilead Sciences, Inc., priority 2020, published 2023), this text covers EC50 for eight compounds.

Where two headings read alike, the source gives them in different places.

Assay type in all cases: cell-based
One test concerns RSV strain A2. Nature of the test: RSV HEp-2 EC50 (infectious cytopathic cell protection assay). Conditions: HEp-2 cells, RSV A2, 4 days, read-out: RSV HEp-2 EC50. The method, boiled down: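 HEp-2 cells mixed with titered RSV A2 at 50,000 cells/ml were added to plates holding 3-fold serial compound dilutions in DMSO, then incubated 4 days at 37° C. Cytoprotection was read as cell viability by CellTiter-Glo luminescence and converted to percent inhibition against 0% and 100% inhibition controls.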
In general terms: Damage to the host cells serves as the signal in cytopathic effect assays.

Another test concerns RSV A2. Nature of the test: RSV NHBE EC50 (RSV A2 antiviral assay in normal human bronchial epithelial cells). Conditions: NHBE cells, RSV A2, 4 days, read-out: RSV NHBE EC50.
Another test concerns DENV2 replicon. Nature of the test: DENV-2 Huh-7 Rep EC50 (replicon luminescence). Conditions: read-out: DENV-2 Huh-7 Rep EC50. The method, boiled down:
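Huh-7 cells carrying a DENV2 replicon, 5,000 cells/well, were incubated with dosed compounds for 48 h at 37° C. EnduRen live-cell substrate was added 1.5 h before luminescence reading. EC50 came from dose-response against DMSO-only wells.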
On the technique in general: A replicon is a self-replicating genome or part of one, used to study replication in cells.

The subject of another test is HRV16. Nature of the test: HRV16 HELA EC50 (cytopathic effect in H1-HeLa cells). The procedure, abridged:
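H1-HeLa cells seeded one day before, given 3-fold serial compound dilutions in triplicate just prior to infection with pre-titrated virus. Incubated 96 h at 33 °C/5% CO2; protection from cytopathic effect read as viability by CellTiter-Glo luminescence, normalised to infected untreated (0%) and uninfected (100%) controls.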

Setting [1] is: H1-HeLa cells, 96 h, 33° C.; read-out: HRV16 HELA EC50.
Where [2] appears, read: human respiratory syncytial virus, HEp-2, 96 h.
Where [3] appears, read: human respiratory syncytial virus, NHBE, 96 h.
[4] abbreviates: Dengue virus, DENV2, Huh-7, 48 h, Huh-7 replicon cells, 48 hours.
[5] abbreviates: 96 h, H1-HeLa cells, 33° C., read-out: HRV16 HELA EC50.
Where [6] appears, read: human respiratory syncytial virus, 96 h.
Setting [7] is: Dengue virus, DENV2, Huh-7, 48 h.

Consider `C[C@H](NP(=O)(OC[C@@]1(C#N)O[C@@H](c2ccc3c(N)ncnn23)[C@H](O)[C@@H]1O)Oc1ccccc1)C(=O)OCC1CCCCC1` (single isomer, unassigned) [Example 248], for which the EC50 came out at 26 nM with RSV strain A2; 2620 nM with RSV A2; 4720 nM with DENV2 replicon (Huh-7 replicon cells, 48 hours); 174 nM in the test with HRV16 (setting [1]).
Regarding `CCOC(=O)[C@H](C)N[P@](=O)(OC[C@@]1(C#N)O[C@@H](c2ccc3c(N)ncnn23)[C@H](O)[C@@H]1O)Oc1ccccc1` [Example 29, Ethyl ((S)-(((2R,3S,4R,5S)-5-(4-aminopyrrolo[2,1-f][1,2,4]triazin-7-yl)-2-cyano-3,4-dihydroxytetrahydrofuran-2-yl)methoxy)(phenoxy)phosphoryl)-L-alaninate], the EC50 was 91 nM in the test with RSV strain A2 (setting [2]), 932 nM in the test on RSV A2 (setting [3]), 36100 nM in the test with DENV2 replicon (setting [4]) and 678 nM with HRV16 (setting [5]).
Take `COC(=O)[C@H](C)N[P@](=O)(OC[C@@]1(C#N)O[C@@H](c2ccc3c(N)ncnn23)[C@H](O)[C@@H]1O)Oc1ccccc1` [Example 52, methyl ((S)-(((2R,3S,4R,5S)-5-(4-aminopyrrolo[2,1-f][1,2,4]triazin-7-yl)-2-cyano-3,4-dihydroxytetrahydrofuran-2-yl)methoxy)(phenoxy)phosphoryl)-L-alaninate]: the EC50 in the test on RSV strain A2 (setting [2]) is 94 nM; with RSV A2 (setting [3]) it was 252 nM; in the test with DENV2 replicon (setting [4]), above 47000 nM; in the test with HRV16 (setting [5]) it was 1250 nM.
For `CCC(CC)COC(=O)[C@@H](C)NP(=O)(OC[C@@]1(C#N)O[C@@H](c2ccc3c(N)ncnn23)[C@H](O)[C@@H]1O)Oc1ccccc1` (stereo partly drawn) [Example 82, (2R)-2-ethylbutyl 2-(((((2R,3S,4R,5S)-5-(4-aminopyrrolo[2,1-f][1,2,4]triazin-7-yl)-2-cyano-3,4-dihydroxytetrahydrofuran-2-yl)methoxy)(phenoxy)phosphoryl)amino)propanoate], in that order: 2510 nM, 3000 nM, above 50000 nM and 9270 nM.
Turning to `C[C@H](N[P@](=O)(OC[C@@]1(C#N)O[C@@H](c2ccc3c(N)ncnn23)[C@H](O)[C@@H]1O)Oc1ccccc1)C(=O)OCC(C)(C)C` [Example 94], the EC50 came out at 100 nM with RSV strain A2; 118 nM with RSV A2; 2340 nM in the test with DENV2 replicon (Huh-7 replicon cells, 48 hours); 209 nM in the test on HRV16 (setting [1]).
Take `CCCCCCCCCCCCCCCCCCOC[C@H](COP(=O)(O)OC[C@@]1(C#N)O[C@@H](c2ccc3c(N)ncnn23)[C@H](O)[C@@H]1O)OCc1ccccc1` [Example 96, ((2R,3S,4R,5S)-5-(4-aminopyrrolo[2,1-f][1,2,4]triazin-7-yl)-2-cyano-3,4-dihydroxytetrahydrofuran-2-yl)methyl ((R)-2-(benzyloxy)-3-(octadecyloxy)propyl) hydrogen phosphate]: the EC50 was 254 nM with RSV strain A2 (setting [6]), 441 nM in the test on RSV A2 (setting [6]), above 100000 nM in the test with DENV2 replicon (setting [7]) and 9350 nM with HRV16 (setting [1]).
On to `CCC(CC)OC(=O)[C@H](C)NP(=O)(OC[C@@]1(C#N)O[C@@H](c2ccc3c(N)ncnn23)[C@H](O)[C@@H]1O)Oc1ccccc1` (stereo partly drawn) [Example 101, (2S)-pentan-3-yl 2-(((((2R,3S,4R,5S)-5-(4-aminopyrrolo[2,1-f][1,2,4]triazin-7-yl)-2-cyano-3,4-dihydroxytetrahydrofuran-2-yl)methoxy)(phenoxy)phosphoryl)amino)propanoate], for which the EC50 with RSV strain A2 (setting [2]) was 1740 nM; in the test on RSV A2 (setting [3]) it was 1240 nM; in the test with DENV2 replicon (setting [4]) it was above 100000 nM; in the test with HRV16 (setting [5]), 3130 nM.
In the case of `CCCCCCCCCCCCCCCCOCCCOP(=O)(O)OC[C@@]1(C#N)O[C@@H](c2ccc3c(N)ncnn23)[C@H](O)[C@@H]1O` [Example 149, ((2R,3S,4R,5S)-5-(4-aminopyrrolo[2,1-f][1,2,4]triazin-7-yl)-2-cyano-3,4-dihydroxytetrahydrofuran-2-yl)methyl (3-(hexadecyloxy)propyl) hydrogen phosphate], the EC50 in the test on RSV strain A2 (setting [6]) is 925 nM; with RSV A2 (setting [6]) it was above 891 nM; in the test on DENV2 replicon (setting [7]), above 50000 nM; in the test on HRV16 (setting [1]) it was above 50000 nM.

The term EC50 denotes the concentration at which the effect is half-maximal.
